Entries after “also recorded” stand apart in the source; their conditions may differ.

Data set [1] is described as follows: Photophysical properties (absorption, emission, extinction coefficient, quantum yield). The class given is physicochemical. From the text: n-Butyllithium in hexanes was purchased from Acros and titrated with diphenylacetic acid, which was recrystallized from toluene. All other reagents were purchased from Sigma Aldrich and used without further purification. Solvents were purchased from either Sigma Aldrich or Fisher Scientific. Anhydrous solvents were purchased from Fisher Scientific and dried by passing through an alumina column of a solvent purification system. Silica gel (230-400 mesh) used for column chromatography was purchased from Silicycle. Thin layer chromatography plates (250 μm thickness) were purchased from Sorbent Technologies. Revered-phase column chromatography was done using a RediSep Rf Gold C18 column on a Teledyne Isco CombiFlash Rf system. High-performance liquid chromatography (HPLC) was performed on a Jasco HPLC system using a Phenomenex column (Luna 5u C18(2) 100A; 250×4.60 mm, 5 micron). UV absorption spectra were obtained on a Jasco V-650 spectrophotometer using a 1 cm path length quartz cuvette. Fluorescence emission spectra were taken on a Horiba Jobin-Yvon FluoroLog using a 1 cm path length fluorescence quartz cuvette. ^1H-NMR and ^13C-NMR were recorded on either a Bruker DMX 500 (500 MHz) or a Bruker AVII 500 (500 MHz). High-resolution mass spectrometry was performed using a Waters LCT Premier XE Mass Spectrometer (model KE 332). […] was performed using a Bruker APEX2-DUO CCD X-ray Diffractometer. Photoreactions were carried out in a Rayonet Photochemical Reactor (model RPR-100). Quantum yield was determined by serial dilution method using coumarine 153 (in ethanol, Φ=0.38) and fluorescein (in NaOH 0.1 M, Φ=0.95) as standards (Yvon, A guide to recording Fluorescence Quantum Yields, http://www.horiba.com/fileadmin/uploads/Scientific/Documents/Fluorescence/quantumyie ldstrad.pdf, accessed Jul. 13, 2014; Brouwer, 2011, Pure Appl. Chem. 83: 2213-2228)

Data set [2] concerns mito-GFP cell line (GFP localized to the outer mitochondria membrane). In words: Colocalization with GFP-labeled mitochondria in mito-GFP HeLa cells. The class given is cell-based. As to the method: For live cell imaging, HeLa cells and HeLa cells expressing a mitochondrial outer membrane targeting domain from Listeria monocytogenes (ActA, C-terminal 47 amino acids) fused to a HaloTag-GFP construct (Ballister et al., 2014, Nat. Commun. 5: 4575) were used. Cells were cultured in a 60 mm culture dish using Life Technologies Dulbecco's Modified Eagle Medium (DMEM) media with phenol red, 10% Fetal Bovine Serum and 1% penicillin-streptomycin at 37° C. in a humidified atmosphere with 5% CO2. The cells were detached with 0.05% trypsin-EDTA and transferred to a 35 mm glass bottom poly-D-lysine coated dish 2-5 days before imaging with about 2 mL of the above-mentioned media. A 5 mM solution of 11-E/11-Z in MiliQ water and a 1 mM solution of MitoTracker Red FM in DMSO were prepared. Two microliter of each solution was mixed with 2 mL new media and added to the cells after the old media was removed. After incubation (3 hours to overnight for 11-E/11-Z and 1 hour for MitoTracker Red FM), the excess dyes were washed twice with non-phenol red DMEM before imaging. The cells were kept in 2 mL non-phenol red DMEM during imaging.
A Leica TCS SP8 confocal microscope equipped with a 63×/1.4 NA oil immersion objective lens was used in FIG. 2A, 3E, S2, S3, and S4. To selectively observe 11-E/11-Z, the excitation wavelength of 405 nm and the emission wavelength range of 620-650 were used. To selectively observe MitoTracker Red FM, the excitation wavelength of 638 nm and the emission wavelength range of 650-700 were used. To selectively observe GFP, the excitation wavelength of 488 nm and the emission wavelength range of 500-550 were used.
Photoproduct 12 is red-shifted in both absorbance and emission by approximately 100 nm while retaining a large Stokes shift of 108 nm (FIG. 44C). […]
Incubating mito-GFP cells with 11-E/11-Z allowed colocalization to be assessed (FIGS. 45A and 54).

In data set [3] the test system is HeLa cells. As to the kind of experiment: Intracellular photoactivation of 11-E/11-Z to 12 in live HeLa cells. The class given is cell-based. The conditions noted are these: 200 alternating 150 ms pulses, one phase exponential fit. From the text:
A Leica DM4000 spinning disk confocal microscope equipped with a 100×1.4 NA oil immersion objective was used in FIGS. 3A and 3B. In FIG. 3A, two channels were used. The first channel has 444 nm excitation wavelength and 525 nm emission wavelength (emission bandpass filter, bandwidth=36 nm). The second channel has 488 nm excitation wavelength and 632 nm emission wavelength (emission bandpass filter, bandwidth=60 nm). The two channels were used alternatingly to carry out 200 150-ms pulses. In FIG. 46B, selective activation was carried out by short pulse (about 1 second) using a 405 nm laser (CrystaLaser, DL405-050-O) controlled by the iLas2 module in Metamorph. All image processing was done using ImageJ. All curve fitting was done using Prism.
By combining the observed photoreaction (FIG. 44A) and the ability to selectively label mitochondria for live cell imaging (FIG. 45A), intracellular photoactivation of 11-E/11-Z was attempted. The roughly 100 nm red-shifted absorbance and emission spectra of 12 compared to 11-E/11-Z allowed for selective excitation of individual species. […] A significant increase in the intensity of […] was achieved after 30 seconds, using 200 total scans (FIG. 46A, 46B). […] Immediately after the first activation, a bright signal was detected at the targeted region (box 1). […]

A short description of data set [4]: Stability of aqueous solution under ambient light (HPLC). The class given is physicochemical. The conditions noted are these: 1 mM in water, 25° C., 10 days. As to the method:
The stability of 1 mM aqueous solution of 11-E/11-Z was assessed under ambient light conditions at 25° C. for 10 days. […] HPLC chromatograms of compounds 11-E/11-Z and 12 can be seen in FIGS. 57 and 58.

The test system of data set [5] is HeLa cells. As to the kind of experiment: Cytotoxicity studies, Alamar Blue cell viability. The class given is cell-based. The conditions noted are these: HeLa cells, 24, 48, and 72 hours; 5 μM 11-E/11-Z, 1 μM MitoTracker Red FM. As to the method:
In a 96-well plate, HeLa cells were plated at 5,000 cells/well in culture media as described above (50 μL/well) and incubated at 37° C. in a humidified atmosphere with 5% CO2. After 24 hours, cells were treated with 11-E/11-Z (final concentration was 5 μM), MitoTracker Red FM (final concentration was 1 μM), and DMSO (vehicle control for MitoTracker). For wells treated with MitoTracker and DMSO, DMSO concentration was kept at 1%. Untreated cells were used as vehicle control for 11-E/11-Z. Final volumes were 100 μL/well. Cells were incubated at 37° C. in 5% CO2 for 24, 48, or 72 hours. Alamar Blue (10 μL) was added 2 hours prior to fluorescence measurement. Fluorescence was measured at 560 nm excitation and 590 nm emission. Vehicle control was taken as 100% cell viability.
A general note: Alamar Blue is a resazurin reagent that responds to reducing activity.

For data set [6], the system named is HeLa cells. As to the kind of experiment: Confocal microscopy of stained live HeLa cells (subcellular localization, cell permeability). The conditions noted are these: confocal microscopy.
Source text: Confocal microscopy was done on a Yokogawa spinning disk inverted microscope with a 100× lens. Each batch of stained cells was imaged by exciting with a 488 nm laser while observing at 503-545 nm (the green overlay images), exciting with a 561 nm laser while observing at 583-650 nm (the red overlay images), and by DIC (the grey images) (FIG. 8).
A 444 nm excitation was required to image with compounds 2 and 3 (FIG. 18).

As to `C[n+]1cccc2c1/C(=C1\c3ccccc3Oc3cccnc31)c1ccccc1O2` (racemic) [11-E/11-Z], the Stokes shift in data set [1] was 135 nm. In data set [1] (in water), the “Abs λmax” value turned out to be 408 nm and the “Em λmax” value came to 543 nm. In data set [1] (solvent: water), the “extinction coefficient ε” value was determined as 11040 M⁻¹ cm⁻¹ and the “quantum yield Φ” value amounted to 0.021. In data set [2], the “Manders' overlap coefficient (first)” value is on record as 0.98±0.01 and the “Manders' overlap coefficient (second)” value is on record as 1.00±0.00. For the same compound, the “Spearman correlation with GFP” value in data set [2] (80 cells) came out at 0.88±0.02. For the same compound, in data set [3], the “rate constant, 444/525 channel” value stood at 0.060 s⁻¹ and the “rate constant, 488/632 channel” value turned out to be 0.030 s⁻¹. The “stability of aqueous solution under ambient light” value in data set [4] is recorded as “No decomposition or photoproduct; also recorded: no evidence for decomposition or photoconversion”. The cytotoxicity entry in data set [5] is on record as “very low cytotoxicity”. In addition, in data set [6], the “staining specificity / subcellular localization” value is given as “consistent with mitochondrial uptake; also recorded: near exclusive mitochondrial localization”.

The record behind these values is patent US10487089B2, “Imaging agents and methods of identifying same” (The Trustees of the University of Pennsylvania, priority 2014, dated 2019).
